Source: PubChem BioAssay AID2458 (Broad Institute, 2010)
Records with an inconclusive call do not appear.

Target: Luciferin 4-monooxygenase (Photinus pyralis) (UniProt P08659)
Assay: Confirmatory luminescence dose response, luciferase translation or activity, H4 neuroglioma cells (AID 2458)

Luciferin 4-monooxygenase (Photinus pyralis), sequence (P08659 whole entry, looked up): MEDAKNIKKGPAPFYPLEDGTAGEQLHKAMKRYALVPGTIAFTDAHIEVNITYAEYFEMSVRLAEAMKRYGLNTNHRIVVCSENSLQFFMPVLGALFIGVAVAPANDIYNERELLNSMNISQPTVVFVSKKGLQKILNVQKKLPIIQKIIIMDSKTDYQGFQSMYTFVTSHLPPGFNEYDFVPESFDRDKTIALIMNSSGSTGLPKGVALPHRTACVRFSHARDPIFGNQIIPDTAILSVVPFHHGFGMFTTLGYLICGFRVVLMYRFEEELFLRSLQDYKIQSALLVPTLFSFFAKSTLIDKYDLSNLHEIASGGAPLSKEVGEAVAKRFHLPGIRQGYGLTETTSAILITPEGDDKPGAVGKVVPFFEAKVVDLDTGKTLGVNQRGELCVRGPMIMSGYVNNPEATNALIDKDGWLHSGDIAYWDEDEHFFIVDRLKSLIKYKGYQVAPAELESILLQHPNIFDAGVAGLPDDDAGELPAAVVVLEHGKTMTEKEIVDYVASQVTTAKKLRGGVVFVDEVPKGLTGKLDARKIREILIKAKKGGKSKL

## COc1ccc(O)c2c(=O)c3c(OC)cc4c(c3oc12)C1C=COC1O4 (stereo unspecified)
  EC50: 521 nM
